Measured values as given in patent CN109776561A, “化合物cytorhizins B和C及其制备方法和在制备抗肿瘤药物中的应用” (Institute of Microbiology of Guangdong Academy of Sciences, priority 2019, dated 2019).

Columns and labels:
Assay type in all cases: cell-based
[1] = tested on: SF-268 nerve cancer cells (神经癌细胞SF-268); assay: SRB cytotoxicity assay, SF-268; details: SF-268, SRB, 72 h
[2] = tested on: HepG-2 liver cancer cells (肝癌细胞HepG-2); assay: SRB cytotoxicity assay, HepG-2; details: HepG-2, SRB, 72 h
[3] = tested on: MCF-7 breast cancer cells (乳腺癌细胞MCF-7); assay: SRB cytotoxicity assay, MCF-7; details: MCF-7, SRB, 72 h
[4] = tested on: NCI-H460 cells (NCI-H460细胞); assay: SRB cytotoxicity assay, NCI-H460; details: 72 h

SMILES | IC50 [1] [µM] | IC50 [2] [µM] | IC50 [3] [µM] | IC50 [4] [µM]
COC[C@H]1O[C@]23Oc4cccc(O)c4[C@](O)(c4c(O)cc(C)c(c42)OC1(C)C)[C@H]3C [cytorhizin C] | 36.8 | 68.6 | 58.6 | 54.7
N.N.[Cl][Pt][Cl] [顺铂, reference compound] | 3.3 | 2.4 | 3.2 | 1.6
Cc1cc(O)c2c3c1OC(C)(C)[C@@H](CCl)O[C@]31Oc3cccc(O)c3[C@@]2(O)[C@H]1C [cytorhizin B] | 34.8 | 29.4 | 30.1 | 32.8
